Assay [1] has as its system Lucilia cuprina larvae. The assay can be described thus: whole plant or invertebrate. As to conditions: in Equus caballus, read-out: activity (mortality in %).
Assay [2] deals with Aulacophora femoralis. Put plainly: Test against Aulacophora femoralis (leaf dip). It counts as in vivo. As to conditions: 100 ppm of the active compound; second instar larvae; after 7 days. Here is the method:
(§1) To prepare an appropriate formulation of an active compound, 1 part by weight of the active compound was mixed with the aforementioned amount of the solvent containing the aforementioned amount of the emulsifier, and the mixture was diluted to a prescribed concentration with water.
Leaves of cucumbers were soaked in a diluted aqueous solution of the prescribed concentration of an active compound prepared in the same manner as in the aforementioned tests, air-dried, and placed a plastic cup containing sterilized black soil. Into this cup, 5 larvae of Aulacophora femoralis at second instar were then released. After 7 days, the number of dead larvae was counted to calculate the death rate.

For assay [3], the system named is Musca domestica. Put plainly: whole plant or invertebrate. As to conditions: read-out: activity (mortality in %).
For assay [4], the system named is Spodoptera litura. The assay can be described thus: Test against larva of Spodoptera litura (leaf dip). In kind it is in vivo. As to conditions: 100 ppm of the active compound; third instar larvae; after 7 days. The protocol: Solvent: Dimethylformamide 3 parts by weight
Emulsifier: Polyoxyethylene alkyl phenyl ether 1 part by weight
as §1
Leaves of sweet potate were soaked in the test agent diluted to a prescribed concentration with water, air-dried, and placed in a dish of 9 cm in diameter. Into this dish, 10 larvae of Spodoptera litura at the third instar were released and kept in a room at constant temperature of 25° C. After 2 and 4 days, more leaves of sweet potato were added, and the number of dead larvae after 7 days was counted to calculate the death rate. In this test, the test results are presented as an average of the results of two dishes per section.

For assay [5], the system named is Boophilus microplus. The assay can be described thus: whole plant or invertebrate. As to conditions: Rhipicephalus microplus, 168 h, read-out: activity (mortality in %).

This passage reports mortality and death rate results from patent publication US8372867B2, “Insecticidal aryl isoxazoline derivatives” (Bayer CropScience AG, priority 2007, dated 2013).

Broadly, the mortality is the percentage killed.

Some results are limits rather than exact numbers.

Take `CC(=O)NCc1ccc(C2=NOC(c3cc(Cl)cc(Cl)c3)(C(F)(F)F)C2)cc1` (stereo not drawn) [1-1, N-{4-[5-(3,5-dichlorophenyl)-5-(trifluoromethyl)-4,5-dihydroisoxazol-3-yl]benzyl}acetamide]: the mortality at 100 ppm in assay [1] and in assay [3] was at least 80% throughout. Also, the death rate in assay [2] and in assay [4] was 100% in each case. Turning to `CC(=O)N(Cc1ccc(C2=NOC(c3cc(Cl)cc(Cl)c3)(C(F)(F)F)C2)cc1)C(C)=O` (stereo not drawn) [1-2], the death rate in assay [2] and in assay [4] was 100% each time. Molecule `O=CN(Cc1ccc(C2=NOC(c3cc(Cl)cc(Cl)c3)(C(F)(F)F)C2)cc1)Cc1ccccn1` (stereo not drawn) [1-4] gave a death rate in assay [4] of 100%.

`CCC(=O)N(Cc1ccc(C2=NOC(c3cc(Cl)cc(Cl)c3)(C(F)(F)F)C2)cc1)Cc1ccccn1` (stereo not drawn) [1-6]: the death rate in assay [2] and in assay [4] was 100% throughout. For `CC(=O)N(Cc1ccccn1)C(C#N)c1ccc(C2=NOC(c3cc(Cl)cc(Cl)c3)(C(F)(F)F)C2)cc1` (stereo not drawn) [1-11, N-(cyano{4-[5-(3,5-dichlorophenyl)-5-(trifluoromethyl)-4,5-dihydroisoxazol-3-yl]phenyl}methyl)-N-(pyridin-2-ylmethyl)-acetamide], the death rate in assay [2] and in assay [4] was 100% in each case. Consider `O=CNCc1ccc(C2=NOC(c3cc(Cl)cc(Cl)c3)(C(F)(F)F)C2)cc1Br` (stereo not drawn) [1-12], for which the death rate in assay [2] and in assay [4] was 100% in each case. Turning to `CC(=O)NCc1ccc(C2=NOC(c3cc(Cl)cc(Cl)c3)(C(F)(F)F)C2)cc1Br` (stereo not drawn) [1-13], the death rate in assay [2] and in assay [4] was 100% each time.

Consider `CC(=O)N(Cc1ccccn1)Cc1ccc(C2=NOC(c3cc(Cl)cc(Cl)c3)(C(F)(F)F)C2)cc1Br` (stereo not drawn) [1-15, N-{2-bromo-4-[5-(3,5-dichlorophenyl)-5-(trifluoromethyl)-4,5-dihydroisoxazol-3-yl]benzyl}-N-(pyridin-2-ylmethyl)acetamide], for which the mortality at 100 ppm in assay [1] and in assay [3] was at least 80% throughout. For the same molecule, the death rate in assay [2] and in assay [4] was 100% each time. Consider `CC(=O)N(Cc1cccnc1)Cc1ccc(C2=NOC(c3cc(Cl)cc(Cl)c3)(C(F)(F)F)C2)cc1Br` (stereo not drawn) [1-16], for which the death rate in assay [2] and in assay [4] was 100% each time. `CC(=O)N(Cc1ccncc1)Cc1ccc(C2=NOC(c3cc(Cl)cc(Cl)c3)(C(F)(F)F)C2)cc1Br` (stereo not drawn) [1-17]: the death rate in assay [2] and in assay [4] was 100% in each case. In the case of `CCC(=O)NCc1ccc(C2=NOC(c3cc(Cl)cc(Cl)c3)(C(F)(F)F)C2)cc1Br` (stereo not drawn) [1-19], the death rate in assay [2] and in assay [4] was 100% throughout. Regarding `CCCC(=O)NCc1ccc(C2=NOC(c3cc(Cl)cc(Cl)c3)(C(F)(F)F)C2)cc1Br` (stereo not drawn) [1-20], the death rate in assay [2] and in assay [4] was 100% throughout.

For the molecule `CC(C)C(=O)NCc1ccc(C2=NOC(c3cc(Cl)cc(Cl)c3)(C(F)(F)F)C2)cc1Br` (stereo not drawn) [1-21], the death rate in assay [2] and in assay [4] was 100% each time. Take `O=C(NCc1ccc(C2=NOC(c3cc(Cl)cc(Cl)c3)(C(F)(F)F)C2)cc1Br)C(F)(F)F` (stereo not drawn) [1-23]: the death rate in assay [2] and in assay [4] was 100% each time. For the molecule `O=C(NCc1ccc(C2=NOC(c3cc(Cl)cc(Cl)c3)(C(F)(F)F)C2)cc1Br)c1ccccc1` (stereo not drawn) [1-24], the death rate in assay [2] and in assay [4] was 100% in each case. `O=C(NCc1ccc(C2=NOC(c3cc(Cl)cc(Cl)c3)(C(F)(F)F)C2)cc1Br)c1ccccn1` (stereo not drawn) [1-25]: the death rate in assay [4] came to 100%.

As for `O=C(NCc1ccc(C2=NOC(c3cc(Cl)cc(Cl)c3)(C(F)(F)F)C2)cc1Br)c1cccnc1` (stereo not drawn) [1-26], the death rate in assay [2] and in assay [4] was 100% in each case. On to `O=C(NCc1ccc(C2=NOC(c3cc(Cl)cc(Cl)c3)(C(F)(F)F)C2)cc1Br)c1ccncc1` (stereo not drawn) [1-27], for which the death rate in assay [2] and in assay [4] was 100% in each case. With `O=C(NCc1ccc(C2=NOC(c3cc(Cl)cc(Cl)c3)(C(F)(F)F)C2)cc1Br)c1ccccc1F` (stereo not drawn) [1-28], the death rate in assay [2] and in assay [4] was 100% in each case.

For `O=C(NCc1ccc(C2=NOC(c3cc(Cl)cc(Cl)c3)(C(F)(F)F)C2)cc1Br)c1cccc(Cl)c1` (stereo not drawn) [1-32], the death rate in assay [2] and in assay [4] was 100% in each case. The molecule `O=C(NCc1ccc(C2=NOC(c3cc(Cl)cc(Cl)c3)(C(F)(F)F)C2)cc1Br)c1ccc(Cl)cc1` (stereo not drawn) [1-33] showed a death rate in assay [2] of 100%. For the molecule `O=C(NCc1ccc(C2=NOC(c3cc(Cl)cc(Cl)c3)(C(F)(F)F)C2)cc1Br)c1ccccc1Br` (stereo not drawn) [1-34], the death rate in assay [2] and in assay [4] was 100% each time. As for `Cc1ccccc1C(=O)NCc1ccc(C2=NOC(c3cc(Cl)cc(Cl)c3)(C(F)(F)F)C2)cc1Br` (stereo not drawn) [1-35], the death rate in assay [2] and in assay [4] was 100% each time.

For `C=CC(=O)NCc1ccc(C2=NOC(c3cc(Cl)cc(Cl)c3)(C(F)(F)F)C2)cc1Br` (stereo not drawn) [1-36], the death rate in assay [2] and in assay [4] was 100% each time.

On to `CS(=O)(=O)NCc1ccc(C2=NOC(c3cc(Cl)cc(Cl)c3)(C(F)(F)F)C2)cc1Br` (stereo not drawn) [1-38], for which the death rate in assay [2] and in assay [4] was 100% throughout. For the molecule `CNC(=O)NCc1ccc(C2=NOC(c3cc(Cl)cc(Cl)c3)(C(F)(F)F)C2)cc1Br` (stereo not drawn) [1-40], the death rate in assay [2] and in assay [4] was 100% each time. On to `CN(C)C(=O)NCc1ccc(C2=NOC(c3cc(Cl)cc(Cl)c3)(C(F)(F)F)C2)cc1Br` (stereo not drawn) [1-41], for which the death rate in assay [2] and in assay [4] was 100% in each case. Take `CSC(=O)NCc1ccc(C2=NOC(c3cc(Cl)cc(Cl)c3)(C(F)(F)F)C2)cc1Br` (stereo not drawn) [1-43]: in assay [4], the death rate is 100%. For `CC(=O)N(C)Cc1ccc(C2=NOC(c3cc(Cl)cc(Cl)c3)(C(F)(F)F)C2)cc1Br` (stereo not drawn) [1-46], the death rate in assay [2] and in assay [4] was 100% each time. In the case of `CC(=O)NCc1ccc(C2=NOC(c3cc(Cl)cc(Cl)c3)(C(F)(F)F)C2)cc1F` (stereo not drawn) [1-57], the death rate in assay [2] and in assay [4] was 100% throughout. Take `CC(=O)NCc1ccc(C2=NOC(c3cc(Cl)cc(Cl)c3)(C(F)(F)F)C2)cc1Cl` (stereo not drawn) [1-58]: the death rate in assay [2] and in assay [4] was 100% in each case.

As to `CC(=O)NCc1ccc(C2=NOC(c3cc(Cl)cc(Cl)c3)(C(F)(F)F)C2)cc1I` (stereo not drawn) [1-59], the death rate in assay [2] and in assay [4] was 100% throughout. For `CC(=O)NCc1ccc(C2=NOC(c3cc(Cl)cc(Cl)c3)(C(F)(F)F)C2)cc1[N+](=O)[O-]` (stereo not drawn) [1-60, N-{4-[5-(3,5-dichlorophenyl)-5-(trifluoromethyl)-4,5-dihydroisoxazol-3-yl]-2-nitrobenzyl}acetamide], the mortality at 100 ppm in assay [1], in assay [3] and in assay [5] was at least 80% each time. For the same molecule, the death rate in assay [2] and in assay [4] was 100% in each case. For `CC(=O)NCc1ccc(C2=NOC(c3cc(Cl)cc(Cl)c3)(C(F)(F)F)C2)cc1C#N` (stereo not drawn) [1-62], the death rate in assay [2] and in assay [4] was 100% each time. In the case of `CC(=O)N(Cc1ccc(C2=NOC(c3cc(Cl)cc(Cl)c3)(C(F)(F)F)C2)cc1Br)N=C(C)C` (stereo not drawn) [1-90], in assay [4], the death rate is 100%. In assay [2], `CC(=O)NCc1ccc(C2=NOC(C)(c3cc(Cl)cc(Cl)c3)C2)cc1Br` (stereo not drawn) [1-93] yielded a death rate of 100%. `CC(=O)NCc1ccc(C2=NOC(c3ccc(Cl)c(Cl)c3)(C(F)(F)F)C2)cc1Br` (stereo not drawn) [1-94]: the death rate in assay [2] and in assay [4] was 100% each time. For `CC(=O)NCc1ccc(C2=NOC(C)(c3cccc(F)c3)C2)cc1Br` (stereo not drawn) [1-97], the death rate in assay [2] and in assay [4] was 100% throughout. In the case of `CC(=O)NCc1ccc(C2=NOC(c3cccc(Cl)c3)(C(F)(F)F)C2)cc1Br` (stereo not drawn) [1-98], the death rate in assay [2] and in assay [4] was 100% throughout.

For the molecule `CC(=O)NCc1ccc(C2=NOC(c3cccc(C(F)(F)F)c3)(C(F)(F)F)C2)cc1Br` (stereo not drawn) [1-99], the death rate in assay [2] and in assay [4] was 100% in each case. On to `CC(=O)NCc1ccc(C2=NOC(c3ccc(C(F)(F)F)cc3)(C(F)(F)F)C2)cc1Br` (stereo not drawn) [1-100], for which the death rate in assay [2] and in assay [4] was 100% each time. On to `CC(=O)NCc1ccc(C2=NOC(c3cc(C(F)(F)F)cc(C(F)(F)F)c3)(C(F)(F)F)C2)cc1Br` (stereo not drawn) [1-101], for which the death rate in assay [2] and in assay [4] was 100% each time.

As to `CC(=O)NCc1ccc(C2=NOC(c3cccc([N+](=O)[O-])c3)(C(F)(F)F)C2)cc1Br` (stereo not drawn) [1-102], in assay [2], the death rate is 100%. The same measure, in the same setting: the value for `CC(=O)NCc1ccc(C2=NOC(c3cccc(C#N)c3)(C(F)(F)F)C2)cc1Br` (stereo not drawn) [1-106] was 100%.
